According to PubChem BioAssay AID2060341 (Molecular Pharmacology Branch, DTP, NCI, 2025):
pIC50: −log10 of the molar value.

Tested on: 327498-153-R-J2-PDC multicell spheroid viability
Experiment: Anticancer human tumor 327498-153-R-J2-PDC patient-derived uterine carcinosarcoma cell line growth inhibition [IpAb]
Settings: for pIC50: curve of first compound; for viability, T/C: stronger effect = lower value
Text: Combinatorial screen of targeted agents with ipatasertib and abemaciclib in multi-cell type tumor spheroids
A high-throughput screen of multi-cell type tumor spheroids was designed to identify active combinations of targeted small molecules and ipatasertib or abemaciclib. Complex spheroids include a stromal component modeled by human endothelial cells (HUVEC) and fibroblasts modeled by human mesenchymal stem cells (MSCs). The concentration ranges selected for each drug and investigational agent were based upon clinically achievable concentrations if the clinical Cmax of the agent was known.
Compounds. The drugs and investigational agents: ipatasertib (NSC767898), abemaciclib(NSC768073), selumetinib (NSC741078), trametinib (758246), adavosertib (NSC754352), everolimus (NSC733504), sapanisertib (NSC764658), vemurafenib (NSC761431), venetoclax (NSC766270), copanlisib (NSC809693), apelisib (NSC765974), palbociblib (NSC758247), vemurafenib (NSC761431), dabrafenib (NSC764134), ravoxertinib (NSC781343), BMS-387032 (NSC767048), sotorasib (NSC818433), talazoparib (NSC767125) and afursertib (NSC778305), were obtained from the National Cancer Institute (NCI) Developmental Therapeutics Program Chemical Repository. The FDA-approved anticancer drug set is available from the NCI Developmental Therapeutics Program. […] The stock solutions were prepared in dimethyl sulfoxide (DMSO, Sigma-Aldrich, St. Louis, MO, cat. D2650) at 800-fold the tested concentration and stored at -70 degrees C prior to their use. All drugs and investigational agents were tested over a range starting from a high concentration at or near the clinical Cmax and decreasing in half-log increments. If the clinical Cmax for an agent had not been determined, the highest concentration tested was 10 microM.
NCI60 Cell Culture. NCI60 cell lines were obtained from the NCI Developmental Therapeutics Program Tumor Repository. For each lot of cells, the Repository performed Applied Biosystems AmpFLSTR Identifiler testing with PCR amplification to confirm consistency with the published Identifier STR profile for each cell line. Cells were kept in continuous culture for no more than 20 passages. The optimal seeding densities for each of the cell lines at each time point assessed were determined prior to performing the concentration response studies. Briefly, the NCI60 human tumor lines were grown as monolayers in RPMI 1640 medium supplemented with 10% FBS and 2 mmol/L L-glutamine.
An additional 9 lines were from the NCI60 cell line panel including MDA-MB-231 breast carcinoma, MDA-MB-468 breast carcinoma, MCF7 breast carcinoma, Hs578T breast carcinoma, MALME-3M melanoma, SK-MEL-2 melanoma, SK-OV-3 ovarian carcinoma, DU-145 prostate carcinoma, PC-3 prostate carcinoma, all cell lines along with major genetic alterations are listed on Table 2. Pooled donor human umbilical vein endothelial cells (HUVEC, Lonza, cat. CC-2519) and human mesenchymal stem cells (hMSC, Lonza, cat. PT-2501) were purchased from Lonza (Walkersville, MD).
PDMR cell lines were grown in complete medium (DC medium): Dulbecco's modified Eagle's medium (DMEM)/F12 supplemented with 5% fetal bovine serum (FBS), 2 mM L-glutamine, 100 U/mL penicillin and 100 µg/ml streptomycin, 0.4 µg/ml hydrocortisone, 10 ng/ml epidermal growth factor (EGF) recombinant human protein, 24 µg/mL adenine, and 0.1 mg/mL primocin. During culture from frozen stock vials, PDMR cells were cultured in the same medium containing 10 µM Y-27632 (see Table 3). The PDCs were cultured in complete DMEM/F12 media without 10 microM Y-27632 dihydrochloride for at least two passages prior to the screen. The pooled donor HUVEC and hMSC were cultured in endothelial cell growth medium 2 (PromoCell, Heidelberg, Germany, cat. C-22011) and mesenchymal stem cell growth medium 2 (PromoCell, cat. C-28009), respectively. For all experiments, HUVEC and hMSC were used at passages </=5.
[…]
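Also: spheroids exposed to agents for 7 days.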
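For viability, T/C in this document: 100% = DMSO vehicle control viability.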

SMILES: CC(C)n1nc(-c2ccc3oc(N)nc3c2)c2c(N)ncnc21 + CC(C)NCC(C(=O)N1CCN(c2ncnc3c2C(C)CC3O)CC1)c1ccc(Cl)cc1
- pIC50 (second compound 0.1 µM): 8.28
- pIC50 (second compound 0.316 µM): 8.75
- pIC50 (second compound 1 µM): 9.35
- pIC50 (second compound 3.16 µM): > 9.50
- pIC50 (second compound 10 µM): > 9.50
- viability, T/C (second compound 0.1 µM, first compound 0.000316 µM): 83.5%
- viability, T/C (second compound 0.1 µM, first compound 0.001 µM): 80%
- viability, T/C (second compound 0.1 µM, first compound 0.00316 µM): 60.3%
- viability, T/C (second compound 0.1 µM, first compound 0.01 µM): 36.6%
- viability, T/C (second compound 0.1 µM, first compound 0.0316 µM): 20.7%
- viability, T/C (second compound 0.1 µM, first compound 0.1 µM): 15.7%
- viability, T/C (second compound 0.316 µM, first compound 0.000316 µM): 74.6%
- viability, T/C (second compound 0.316 µM, first compound 0.001 µM): 56.5%
- viability, T/C (second compound 0.316 µM, first compound 0.00316 µM): 44%
- viability, T/C (second compound 0.316 µM, first compound 0.01 µM): 24.4%
- viability, T/C (second compound 0.316 µM, first compound 0.0316 µM): 16.6%
- viability, T/C (second compound 0.316 µM, first compound 0.1 µM): 13.3%
- viability, T/C (second compound 1 µM, first compound 0.000316 µM): 55.1%
- viability, T/C (second compound 1 µM, first compound 0.001 µM): 36.9%
- viability, T/C (second compound 1 µM, first compound 0.00316 µM): 28.4%
- viability, T/C (second compound 1 µM, first compound 0.01 µM): 16.8%
- viability, T/C (second compound 1 µM, first compound 0.0316 µM): 10.6%
- viability, T/C (second compound 1 µM, first compound 0.1 µM): 11%
- viability, T/C (second compound 3.16 µM, first compound 0.000316 µM): 39.2%
- viability, T/C (second compound 3.16 µM, first compound 0.001 µM): 29.1%
- viability, T/C (second compound 3.16 µM, first compound 0.00316 µM): 19.9%
- viability, T/C (second compound 3.16 µM, first compound 0.01 µM): 11.5%
- viability, T/C (second compound 3.16 µM, first compound 0.0316 µM): 8.42%
- viability, T/C (second compound 3.16 µM, first compound 0.1 µM): 7.91%
- viability, T/C (second compound 10 µM, first compound 0.000316 µM): 26.9%
- viability, T/C (second compound 10 µM, first compound 0.001 µM): 24%
- viability, T/C (second compound 10 µM, first compound 0.00316 µM): 13.7%
- viability, T/C (second compound 10 µM, first compound 0.01 µM): 9.73%
- viability, T/C (second compound 10 µM, first compound 0.0316 µM): 6.51%
- viability, T/C (second compound 10 µM, first compound 0.1 µM): 6.09%
